Values joined by “and” are separate entries in the source; they are usually repeats but may differ in a detail not shown here. Equal values may be shown once.
Target: T1, Human SV2A (Homo sapiens, UniProt Q7L0J3)
T1 construct: expressed in transfected cells; host or cells: human embryonic kidney (HEK) cells; membrane preparations
Experiment: Binding assay to SV2A (radioligand competition, HEK membranes)
Settings: human SV2A in HEK membranes, 60 min at 37° C., pIC50 corrected to pKi by Cheng and Prusoff
Description: Human SV2A and SV2C proteins were expressed in human embryonic kidney (HEK) cells. HEK SV2A and HEK SV2C membrane preparations were prepared as described in Gillard et al (Eur. J. Pharmacol. 2006, 536, 102-108). To measure affinity of non-labelled compounds, competition experiments were performed as follow: Membranes expressing SV2 proteins (5 to 15 μg proteins per assay) were incubated for 60 min at 37° C. with either [^3H]-2-[4-(3-azidophenyl)-2-oxo-1-pyrrolidinyl]butanamide (5 nM) and/or [^3H]-4R-(2-chloro-2,2-difluoroethyl)-1-{[2-(methoxymethyl)-6-(trifluoromethyl)imidazo[2,1-b][1,3,4]thiadiazol-5-yl]methyl}pyrrolidin-2-one (25 nM) in 0.2 ml of a 50 mM Tris-HCl buffer (pH 7.4) containing 2 mM MgCl2, 0.1% dimethylsulfoxide and ten increasing concentrations of non-labelled test compound (0.1 nM to 10 μM). At the end of the incubation period, the membrane-bound radioligand was recovered by rapid filtration through GF/C glass fiber filters pre-soaked in 0.1% polyethyleneimine. Membranes were washed with at least 4 times the assay volume of ice-cold 50 mM Tris HCl buffer (pH 7.4). The filters were dried and the radioactivity determined by liquid scintillation. […] Measured affinity plC50 values were corrected to pKi according to Cheng and Prusoff (Biochem. Pharmacol. 1973, 22(23), 3099-3108).

T1 sequence (Q7L0J3 whole entry): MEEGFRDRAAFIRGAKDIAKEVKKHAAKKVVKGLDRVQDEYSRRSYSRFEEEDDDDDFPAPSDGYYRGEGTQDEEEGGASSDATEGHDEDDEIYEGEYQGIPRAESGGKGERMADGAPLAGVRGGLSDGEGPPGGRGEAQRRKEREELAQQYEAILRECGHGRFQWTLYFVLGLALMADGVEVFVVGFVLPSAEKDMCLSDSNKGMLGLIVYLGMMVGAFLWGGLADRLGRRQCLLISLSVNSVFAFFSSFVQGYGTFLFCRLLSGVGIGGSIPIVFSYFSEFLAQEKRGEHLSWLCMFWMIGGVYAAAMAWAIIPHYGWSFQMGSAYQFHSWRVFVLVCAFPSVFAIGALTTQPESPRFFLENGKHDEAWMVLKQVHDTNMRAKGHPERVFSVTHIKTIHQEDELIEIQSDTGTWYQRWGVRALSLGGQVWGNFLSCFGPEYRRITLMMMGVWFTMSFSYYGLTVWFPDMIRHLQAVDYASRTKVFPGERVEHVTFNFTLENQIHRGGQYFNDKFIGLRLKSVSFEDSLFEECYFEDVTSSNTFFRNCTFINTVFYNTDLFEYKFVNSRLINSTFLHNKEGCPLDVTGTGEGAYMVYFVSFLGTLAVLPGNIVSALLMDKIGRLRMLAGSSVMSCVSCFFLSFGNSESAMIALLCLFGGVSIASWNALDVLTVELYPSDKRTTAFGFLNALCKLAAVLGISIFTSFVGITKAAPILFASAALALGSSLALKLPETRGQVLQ

SMILES	Ki
COCc1nn2c(CN3CC(C4CC4(F)F)=CC3=O)c(C)nc2s1 (single isomer, unassigned) [Example 18-B, 1-[[2-(methoxymethyl)-6-methyl-imidazo[2,1-b][1,3,4]thiadiazol-5-yl]methyl]-3-[2,2-difluorocyclopropyl]-2H-pyrrol-5-one]	31.6 to 316 nM
COCc1nn2c(CN3CC(C4CC4(F)F)=CC3=O)c(C(F)F)nc2s1 (single isomer, unassigned) [Example 19-A, 1-[[6-(difluoromethyl)-2-(methoxymethyl)imidazo[2,1-b][1,3,4]thiadiazol-5-yl]methyl]-3-[2,2-difluorocyclopropyl]-2H-pyrrol-5-one]	3.16 to 10 nM
COCc1nn2c(CN3CC(CC(F)(F)F)=CC3=O)c(Cl)nc2s1 [Example 5, 1-[[6-chloro-2-(methoxymethyl)imidazo[2,1-b][1,3,4]thiadiazol-5-yl]methyl]-3-(2,2,2-trifluoroethyl)-2H-pyrrol-5-one]	10 to 31.6 nM
CCCC1=CC(=O)N(Cc2c(C)nc3sc(COC)nn23)C1 [Example 4, 1-[[2-(methoxymethyl)-6-methyl-imidazo[2,1-b][1,3,4]thiadiazol-5-yl]methyl]-3-propyl-2H-pyrrol-5-one]	3.16 to 10 nM
COCc1nn2c(CN3CC(CC(C)(F)F)=CC3=O)c(C)nc2s1 [Example 20, 3-(2,2-difluoropropyl)-1-[[2-(methoxymethyl)-6-methyl-imidazo[2,1-b][1,3,4]thiadiazol-5-yl]methyl]-2H-pyrrol-5-one]	10 to 31.6 nM
CCCC1=CC(=O)N(Cc2c(C(F)(F)F)nc3sc(COC)nn23)C1 [Example 1, 1-[[2-(methoxymethyl)-6-(trifluoromethyl)imidazo[2,1-b][1,3,4]thiadiazol-5-yl]methyl]-3-propyl-2H-pyrrol-5-one]	3.16 to 10 nM
O=C1C=C(CC(F)(F)F)CN1Cc1c(C(F)F)nc2sc(CO)nn12 [Example 23, 1-[[6-(difluoromethyl)-2-(hydroxymethyl)imidazo[2,1-b][1,3,4]thiadiazol-5-yl]methyl]-3-(2,2,2-trifluoroethyl)-2H-pyrrol-5-one]	31.6 to 316 nM
COCc1nn2c(CN3CC(C4CC4(F)F)=CC3=O)c(C(F)(F)F)nc2s1 (single isomer, unassigned) [Example 17-A, 3-(2,2-difluorocyclopropyl)-1-[[2-(methoxymethyl)-6-(trifluoromethyl)imidazo[2,1-b][1,3,4]thiadiazol-5-yl]methyl]-2H-pyrrol-5-one]	3.16 to 10 nM
COCc1nn2c(CN3CC(CCC(F)(F)F)=CC3=O)c(C(F)(F)F)nc2s1 [Example 3, 1-[[2-(methoxymethyl)-6-(trifluoromethyl)imidazo[2,1-b][1,3,4]thiadiazol-5-yl]methyl]-3-(3,3,3-trifluoropropyl)-2H-pyrrol-5-one]	3.16 to 10 nM
COCc1nn2c(CN3CC(CC(C)(F)F)=CC3=O)c(C(F)(F)F)nc2s1 [Example 15, 3-(2,2-difluoropropyl)-1-[[2-(methoxymethyl)-6-(trifluoromethyl)imidazo[2,1-b][1,3,4]thiadiazol-5-yl]methyl]-2H-pyrrol-5-one]	3.16 to 10 nM
COCc1nn2c(CN3CC(CC(F)(F)F)=CC3=O)c(C3(F)CC3)nc2s1 [Example 11, 1-[[6-(1-fluorocyclopropyl)-2-(methoxymethyl)imidazo[2,1-b][1,3,4]thiadiazol-5-yl]methyl]-3-(2,2,2-trifluoroethyl)-2H-pyrrol-5-one]	10 to 31.6 nM and 3.16 to 10 nM
CCCC1=CC(=O)N(Cc2c(C(F)F)nc3sc(COC)nn23)C1 [Example 8, 1-[[6-(difluoromethyl)-2-(methoxymethyl)imidazo[2,1-b][1,3,4]thiadiazol-5-yl]methyl]-3-propyl-2H-pyrrol-5-one]	3.16 to 10 nM
COCc1nn2c(CN3CC(CC(F)(F)Cl)=CC3=O)c(C(F)(F)F)nc2s1 [Example 12, 3-(2-chloro-2,2-difluoro-ethyl)-1-[[2-(methoxymethyl)-6-(trifluoromethyl)imidazo[2,1-b][1,3,4]thiadiazol-5-yl]methyl]-2H-pyrrol-5-one]	3.16 to 10 nM
Cc1nc2sc(CO)nn2c1CN1CC(CCC(F)(F)F)=CC1=O [Example 21, 1-[[2-(hydroxymethyl)-6-methyl-imidazo[2,1-b][1,3,4]thiadiazol-5-yl]methyl]-3-(3,3,3-trifluoropropyl)-2H-pyrrol-5-one]	31.6 to 316 nM
COCc1nn2c(CN3CC(C4CC4(F)F)=CC3=O)c(C)nc2s1 (single isomer, unassigned) [Example 18-A, 1-[[2-(methoxymethyl)-6-methyl-imidazo[2,1-b][1,3,4]thiadiazol-5-yl]methyl]-3-[2,2-difluorocyclopropyl]-2H-pyrrol-5-one]	10 to 31.6 nM
COCc1nn2c(CN3CC(CC(F)(F)F)=CC3=O)c(C(F)(F)F)nc2s1 [Example 2, 1-[[2-(methoxymethyl)-6-(trifluoromethyl)imidazo[2,1-b][1,3,4]thiadiazol-5-yl]methyl]-3-(2,2,2-trifluoroethyl)-2H-pyrrol-5-one]	10 to 31.6 nM
COCc1nn2c(CN3CC(CCC(F)(F)F)=CC3=O)c(C)nc2s1 [Example 13, 1-[[2-(methoxymethyl)-6-methyl-imidazo[2,1-b][1,3,4]thiadiazol-5-yl]methyl]-3-(3,3,3-trifluoropropyl)-2H-pyrrol-5-one]	3.16 to 10 nM
COCc1nn2c(CN3CC(CC(F)(F)F)=CC3=O)c(C(F)F)nc2s1 [Example 10, 1-[[6-(difluoromethyl)-2-(methoxymethyl)imidazo[2,1-b][1,3,4]thiadiazol-5-yl]methyl]-3-(2,2,2-trifluoroethyl)-2H-pyrrol-5-one]	3.16 to 10 nM
COCc1nn2c(CN3CC(CC(C)(F)F)=CC3=O)c(C(F)F)nc2s1 [Example 16, 1-[[6-(difluoromethyl)-2-(methoxymethyl)imidazo[2,1-b][1,3,4]thiadiazol-5-yl]methyl]-3-(2,2-difluoropropyl)-2H-pyrrol-5-one]	3.16 to 10 nM
COCc1nn2c(CN3CC(CC(F)(F)F)=CC3=O)c(C)nc2s1 [Example 9, 1-[[2-(methoxymethyl)-6-methyl-imidazo[2,1-b][1,3,4]thiadiazol-5-yl]methyl]-3-(2,2,2-trifluoroethyl)-2H-pyrrol-5-one]	3.16 to 10 nM
O=C1C=C(CCC(F)(F)F)CN1Cc1c(C(F)F)nc2sc(CO)nn12 [Example 22, 1-[[6-(difluoromethyl)-2-(hydroxymethyl)imidazo[2,1-b][1,3,4]thiadiazol-5-yl]methyl]-3-(3,3,3-trifluoropropyl)-2H-pyrrol-5-one]	31.6 to 316 nM
CCCC1=CC(=O)N(Cc2c(Cl)nc3sc(COC)nn23)C1 [Example 6, 1-[[6-chloro-2-(methoxymethyl)imidazo[2,1-b][1,3,4]thiadiazol-5-yl]methyl]-3-propyl-2H-pyrrol-5-one]	3.16 to 10 nM
COCc1nn2c(CN3CC(CCC(F)(F)F)=CC3=O)c(C(F)F)nc2s1 [Example 14, 1-[[6-(difluoromethyl)-2-(methoxymethyl)imidazo[2,1-b][1,3,4]thiadiazol-5-yl]methyl]-3-(3,3,3-trifluoropropyl)-2H-pyrrol-5-one]	3.16 to 10 nM
COCc1nn2c(CN3CC(CCC(F)(F)F)=CC3=O)c(Cl)nc2s1 [Example 7, 1-[[6-chloro-2-(methoxymethyl)imidazo[2,1-b][1,3,4]thiadiazol-5-yl]methyl]-3-(3,3,3-trifluoropropyl)-2H-pyrrol-5-one]	3.16 to 10 nM

— patent US11286266B2, “1-imidazothiadiazolo-2H-pyrrol-5-one derivatives” (UCB Biopharma SRL, priority 2018, dated 2022)
